Reference: patent publication US12133920B2, “Stabilization of beta-hydroxyisovaleric acid formulations in soft gel capsules” (TSI Group Ltd., priority 2016, dated 2024)

Assay: Accelerated stability test: HMB-FA contents per capsule
Format: physicochemical
Details: for HMB FA contents: 40±2° C., 75% RH±5% RH, sealed HDPE bottles, HMB-FA 75 wt %, betaine anhydrous 18 wt %, purified water 7 wt %
Method: Accelerated Stability Test: To assess how the quality and purity of the instantly disclosed composition would vary with time under the influence of environmental factors of temperature and humidity, accelerated stability tests were performed. Tests were carried out according to guidelines provided in Stability Testing of New Drug Substances and Products issued by ICH and Stability testing guideline of dietary supplements by NSF. NSF Stability Testing Working Group, Stability testing guideline of dietary supplements, January 2011. […] The gel capsule composition was HMB-FA 75 wt %; betaine anhydrous 18 wt % and purified water 7 wt %. Samples were repacked in HDPE bottles (size: 1 80 ct, 300 rnl) then sealed with aluminum foil. Samples were exposed to high temperature and high humidity (40±2° C.; 75% RH±5% RH) and evaluated at 1, 2, and 3 months.

Structure (SMILES): CC(C)(O)CC(=O)O [HMB FA, Beta-hydroxyisovaleric acid]
- HMB FA contents (0 months): 519 mg/capsule
- HMB FA contents (1 month): 494.4 mg/capsule
- HMB FA contents (2 months): 484.8 mg/capsule
- HMB FA contents (3 months): 491.8 mg/capsule
- stability of HMB FA (overall) (high heat high humidity environments, periods exceeding three months): substantially stable
